This is an account of results in patent publication US6057371A, “Sigma receptor ligands and the use thereof” (Virginia Commonwealth University, priority 1992, dated 2000).

Read-outs that look alike come from different tables or passages of the source. Where only a bound is given, the exact number is not on record here.

One test deals with sigma sites. The conditions noted are these: cited, cited from earlier work; for affinity for sigma-1 site compared to sigma-2 site: Hellewell and Bowen.
The conditions of test [1]: cited, Glennon 1984; cited from earlier work.
Test [2] deals with T1, sigma-2 binding site (Cavia porcellus, UniProt H0V073).
T1 construct: Guinea pig whole membrane preparations (P2 microsomal fraction); from tissue; host or cells: guinea pig membranes (P2 microsomal fraction), as described by Weber et al; brain inferred from the sister test b489
T1 sequence (H0V073 1-176): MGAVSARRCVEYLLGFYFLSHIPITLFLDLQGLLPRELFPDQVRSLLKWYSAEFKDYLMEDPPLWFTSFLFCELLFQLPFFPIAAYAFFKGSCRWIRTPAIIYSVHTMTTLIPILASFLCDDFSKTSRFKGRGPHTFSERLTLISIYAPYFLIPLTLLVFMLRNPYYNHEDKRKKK
Put plainly: biochemical. On the set-up: species or system guinea pig.
Experimental: (§4) For the standard equilibrium assay, the mixtures were incubated for 30 min. at room temperature, then filtered and the radioactivity determined as described above.

A further test deals with PCP receptor. Put plainly: PCP receptor binding, ^3 H-MK-801. More on the design: species or system rat. The conditions noted are these: Table 4. Here is the method:
PCP receptor binding assays against ^3 H-MK-801 were conducted as described by Keana et al., Proc. Natl. Acad. Sci (USA) 86: 5631-5635 (1989); Keana et al., Life Sciences 43: 965-973 (1988). For (+) ^3 H-MK-801 binding, 1 nM of radioligand was incubated with about 100 ug of thawed rat brain membrane protein for 4 hr at room temperature. The assays were carried out in 5 mM Tris/acetate and were stopped by rapid filtration through Whatman GF/B or Schleicher & Schuell no. 32 glass fiber filters (presoaked in 0.05% polyethylenamine).

The next test has as its target T2, 5-HT1A receptor (Rattus norvegicus, UniProt P19327).
T2 sequence (P19327 1-422): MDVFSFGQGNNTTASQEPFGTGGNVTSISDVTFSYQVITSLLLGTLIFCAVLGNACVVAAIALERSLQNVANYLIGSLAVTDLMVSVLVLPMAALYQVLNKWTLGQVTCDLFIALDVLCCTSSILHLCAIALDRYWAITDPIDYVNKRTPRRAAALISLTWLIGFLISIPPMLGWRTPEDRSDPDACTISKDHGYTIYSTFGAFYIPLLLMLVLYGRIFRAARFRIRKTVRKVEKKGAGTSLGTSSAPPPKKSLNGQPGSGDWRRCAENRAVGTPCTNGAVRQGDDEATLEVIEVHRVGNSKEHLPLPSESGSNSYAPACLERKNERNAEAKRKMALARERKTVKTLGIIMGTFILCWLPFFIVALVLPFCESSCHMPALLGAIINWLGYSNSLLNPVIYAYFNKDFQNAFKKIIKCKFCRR
The experiment in a line: biochemical. The conditions noted are these: Table 5; for IC50: read-out: 5-HT1A IC50. On the set-up: 47: 529-540 (1986); from tissue; host or cells: brain tissue, inferred from the cited method (rat frontal cortex). Format: binding. Here is the method:
Further sigma receptor binding assays against [^3 H]DTG and 5HT-1A binding assays were conducted according to the procedure outlined in the previous examples.

A further test has as its target T3, Dopamine D1 receptor (Rattus norvegicus, UniProt P18901).
T3 construct: Rat striatal membranes were prepared from frozen tissue; from tissue; host or cells: rat striatum, frozen tissue
The experiment in a line: Dopamine D1 receptor binding, [^3 H]SCH-23390, striatal membranes. The conditions noted are these: Table 4. Here is the method:
(§1) Dopamine D1 and D2 receptor binding assays were performed as described by Billard et al., Life Sci. 35: 1885-1893 (1984) using [^3 H]SCH-23390 for the D1 receptors and [^3 H]domperidone for the D2 receptors (Baudry et al., Arch. Pharmacol. 308: 231-237 (1979).
(§2) Rat striatal membranes were prepared from frozen tissue by Poltron homogenization in 25 volumes of ice cold Tris-EDTA buffer (50 mM Tris-HCl, 1 mM EDTA, pH 7.4 at 4° C.). The homogenate was centrifuged at 48,000× g for 10 min. at 4° C., and the pellet was resuspended in 25 volumes of the same buffer. This suspension was then incubated at 37° C. for 15 min., followed by recentrifugation as before. The resulting pellet was resuspended in 267 volumes of assay buffer (50 mM Tris-HCl, 120 mM NaCl, 5 mM KCl, 2 mM CaCl2, 1 mM MgCl2, pH 7.4 at 37° C.).
(§3) The binding assays were conducted with 100 uL of [^3 H]SCH-23390 or [^3 H]domperidone (to give about 1 nM final), 100 uL of buffer or drug solution, and 800 uL of membrane suspension (to give about 250 ug of striatal membrane protein per assay). The tubes were incubated at 37° C. for 60 min. The assays were stopped by rapid filtration over Schleicher & Schuell #32 or Whatman GF/B glass fiber filters (presoaked in 0.5% polyethyleneimine for [^3 H]domperidone binding), followed by two 3 mL washes of ice cold buffer using a Brandel cell harvester. After vigorous shaking, the filter disks were counted at 52% efficiency in 5 mL of Cytoscint (ICN).

The target in the next test is T4, Dopamine D2 receptor (Rattus norvegicus, UniProt P61169).
T4 construct: Rat striatal membranes were prepared from frozen tissue; from tissue; host or cells: rat striatum, frozen tissue
T4 sequence (P61169 whole entry): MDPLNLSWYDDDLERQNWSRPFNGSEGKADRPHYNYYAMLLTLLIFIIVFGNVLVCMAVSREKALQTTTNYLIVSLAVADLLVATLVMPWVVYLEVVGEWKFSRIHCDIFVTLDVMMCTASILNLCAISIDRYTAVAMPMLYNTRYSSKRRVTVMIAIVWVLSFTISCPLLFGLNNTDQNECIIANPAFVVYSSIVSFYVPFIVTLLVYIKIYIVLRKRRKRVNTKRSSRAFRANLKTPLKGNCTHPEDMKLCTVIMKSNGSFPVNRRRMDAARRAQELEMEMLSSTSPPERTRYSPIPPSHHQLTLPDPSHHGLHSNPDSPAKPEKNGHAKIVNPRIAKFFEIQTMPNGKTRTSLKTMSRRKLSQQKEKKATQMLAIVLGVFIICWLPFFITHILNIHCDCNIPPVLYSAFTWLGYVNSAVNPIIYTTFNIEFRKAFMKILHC
Put plainly: Dopamine D2 receptor binding, [^3 H]domperidone, striatal membranes. The conditions noted are these: Table 4. Here is the method:
as §1, §2, §3

Another test deals with T5, sigma-1 binding site (Cavia porcellus, UniProt Q60492).
T5 construct: Guinea pig whole membrane preparations (P2 microsomal fraction); from tissue; host or cells: guinea pig membranes (P2 microsomal fraction), as described by Weber et al; brain inferred from the sister test b489
T5 sequence (Q60492 whole entry): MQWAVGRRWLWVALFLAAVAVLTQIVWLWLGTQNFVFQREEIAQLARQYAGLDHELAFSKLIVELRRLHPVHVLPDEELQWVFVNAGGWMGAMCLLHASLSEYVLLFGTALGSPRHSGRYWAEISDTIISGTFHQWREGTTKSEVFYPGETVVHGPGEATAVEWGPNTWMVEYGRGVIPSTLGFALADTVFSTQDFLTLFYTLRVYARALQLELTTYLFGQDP
The experiment in a line: biochemical. The conditions noted are these: Table 10; for Ki: read-out: SIGMA-1 KI vs. 3H-PENTAZOCINE MEAN; for S1/S2 Ratio: sigma-1/sigma-2. More on the design: species or system guinea pig. Here is the method:
[^3 H]DTG was purchased from DuPont/NEN.
The radioactivity on the filters was determined by scintillation spectrometry at an efficiency of about 50% using Cytoscint (ICN) scintillation fluid.

Another test has as its target sigma receptor. The experiment in a line: Sigma receptor binding, [^3 H]DTG, brain membranes (both sigma-1 and sigma-2 sites). On the set-up: species or system guinea pig.
The test system of test [3] is sigma-2 binding site. The experiment in a line: biochemical. On the set-up: species or system guinea pig. To be noted: Example 9.
Experimental: as §4
Setting [4] is: Table 10, read-out: SIGMA-2 KI vs. 3H-DTG + PENTAZOCINE MEAN.

T3 sequence (P18901 whole entry): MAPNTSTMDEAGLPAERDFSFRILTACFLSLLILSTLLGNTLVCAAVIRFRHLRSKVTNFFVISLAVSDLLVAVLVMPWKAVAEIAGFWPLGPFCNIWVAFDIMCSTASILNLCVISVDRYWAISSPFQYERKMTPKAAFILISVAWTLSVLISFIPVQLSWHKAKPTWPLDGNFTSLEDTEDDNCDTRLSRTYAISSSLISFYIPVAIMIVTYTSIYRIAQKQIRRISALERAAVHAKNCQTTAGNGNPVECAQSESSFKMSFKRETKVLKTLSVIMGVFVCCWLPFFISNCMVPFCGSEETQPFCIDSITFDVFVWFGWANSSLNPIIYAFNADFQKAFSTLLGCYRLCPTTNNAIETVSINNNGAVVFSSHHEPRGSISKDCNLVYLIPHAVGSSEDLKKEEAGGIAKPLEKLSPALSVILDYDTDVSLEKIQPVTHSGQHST

Turning to `CC(C)=CCN1CCC2(C)c3cc(O)ccc3CC1C2C` (single isomer, unassigned; (+)) [(+)Pentazocine], the “affinity for sigma-1 site compared to sigma-2 site” value in the test on sigma sites is given as “nearly two orders of magnitude higher affinity for the sigma-1 site compared to the sigma-2 site”.

Regarding `NC1CCc2ccccc2C1` (stereo not shown) [2-aminotetralin], in test [1], the “effectiveness vs. racemic amphetamine” value is “about one-half as effective as racemic amphetamine”.

For the compound `C=CCN1CC[C@]2(C)c3cc(O)ccc3C[C@H]1[C@H]2C` [(+)SKF 10047, reference compound], in the test on sigma sites, the “affinity for sigma-1 site compared to sigma-2 site” value is recorded as “nearly two orders of magnitude higher affinity for the sigma-1 site compared to the sigma-2 site”. Also, at sigma-2 binding site [2] (SIGMA-2 KI vs. 3H-DTG + PENTAZOCINE MEAN), the Ki was determined as 16200 nM.

With `C[C@H](Cc1ccccc1)NCCCc1ccccc1` [Compound 1, R(-)N-(1-phenyl-2-propyl)-3-phenylpropylamine], the IC50 – broadly, the point on the concentration scale where inhibition reaches its midpoint – at PCP receptor was above 10000 nM; at 5-HT1A receptor, 115 nM; on Dopamine D1 receptor, above 10000 nM; on Dopamine D2 receptor it was 4650 ± 430 nM; on sigma-2 binding site [2] (Table 17, read-out: IC50 (nM) at sigma-2), 60 nM. For the same compound, the Ki was determined as 60 nM at sigma-2 binding site [2] (Example 9, read-out: sigma-2 binding affinity) and 60.8 nM at sigma-2 binding site [2] (setting [4]).

For `c1ccc(CCCNCCCc2ccccc2)cc1` [Compound 15, Di-(3-phenylpropyl)-amine], the IC50 on PCP receptor is above 10000 nM; on 5-HT1A receptor, 30.7 nM; on Dopamine D1 receptor, above 10000 nM; at Dopamine D2 receptor it was 1680 ± 3600 nM. Besides, at 5-HT1A receptor, the “Ratio 5-HT1A /σ” value turned out to be 2. Further, the Ki was determined as 11.4 nM on sigma-1 binding site; 63.9 nM on sigma-2 binding site [2] (setting [4]); 14 nM on sigma receptor (Table 7, Phenyl-(CH2)x -NH--(CH2)y -Phenyl, read-out: Ki). The “S1/S2 Ratio” value on sigma-1 binding site was “.178”.

For `c1ccc(CCNCCCc2ccc3ccccc3c2)cc1` [Compound 41], the IC50 on PCP receptor was above 10000 nM; on 5-HT1A receptor, 34.7 nM; at Dopamine D1 receptor, above 10000 nM; at Dopamine D2 receptor, 1920 ± 190 nM. For the same compound, at 5-HT1A receptor, the “Ratio 5-HT1A /σ” value is listed as 7.6.

In the case of `c1ccc(N2CCN(CCCc3ccc4ccccc4c3)CC2)cc1` [Compound 51], the IC50 on PCP receptor is above 10000 nM; at Dopamine D1 receptor it was 2990 ± 40 nM; on Dopamine D2 receptor, 158 ± 28 nM.

For `COc1ccccc1N1CCN(CCCCN2C(=O)c3ccccc3C2=O)CC1` [Compound 120, N-(4-(1-phthalimido)butyl)-N'-(o-methoxyphenyl)piperazine], on sigma-1 binding site, the Ki was 512 nM and the “S1/S2 Ratio” value came to 6.683. For the same compound, in the test with sigma-2 binding site [3], the sigma-1/sigma-2 ratio is reported as 7. On sigma-2 binding site [2] (setting [4]), the Ki stood at 76.6 nM. The compound also yielded an IC50 on sigma receptor (Table 6, [^3 H]DTG) of 64.7 nM.

For `O=C(CCCN1CCC(O)(c2ccc(Cl)cc2)CC1)c1ccc(F)cc1` [Haloperidol], the “affinity for sigma sites vs. N-allyl normetrazocine (NANM)” value with sigma sites (Tam 1984) is “approximately 100 fold”.
